Data taken from patent US11884675B2, “Heterocyclic compounds as triggering receptor expressed on myeloid cells 2 agonists and methods of use” (AMGEN INC., priority 2020, dated 2024).

Each compound was assayed against hTREM2 (Homo sapiens, UniProt Q9NZC2) (assay: TREM2 agonist potency by Syk phosphorylation (AlphaLisa) in HEK293T-hTREM2 cells, used for Examples 306-429). Conditions: HEK293 Cells.
Chain of hTREM2 (Q9NZC2 19-230): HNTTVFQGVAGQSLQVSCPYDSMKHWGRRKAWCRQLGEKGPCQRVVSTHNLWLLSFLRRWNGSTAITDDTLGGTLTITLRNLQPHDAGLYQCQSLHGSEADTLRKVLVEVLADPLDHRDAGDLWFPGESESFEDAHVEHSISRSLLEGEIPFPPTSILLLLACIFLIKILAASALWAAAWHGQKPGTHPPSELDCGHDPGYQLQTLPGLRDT
Chain of hTREM2 (O43914 22-113 partner): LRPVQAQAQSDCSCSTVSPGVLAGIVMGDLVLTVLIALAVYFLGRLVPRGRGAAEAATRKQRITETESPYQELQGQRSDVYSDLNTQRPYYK
Format: cell-based
Set-up: expressed in transfected cells; host or cells: HEK293T (HEK293T-hTREM2 cells)
Method: In vitro Measurement of Triggering Receptor Expressed on Myeloid Cells 2 activity using cellular phosphorylation of Spleen Tyrosine Kinase (“Syk”) Assays used for Examples 306-429
Measurement of TREM2 agonist potency was done using a HEK cell line expressing human TREM2 and DAP12 (HEK293T-hTREM2 cells). Binding of small molecules to, and activation of, TREM2 increases the phosphorylation of Syk. The resultant levels of Syk phosphorylation were measured using a commercial AlphaLisa reagent kit. To perform the assay, HEK-hTREM2 cells were plated at 14,000 cells per well in a 384 well plate, in 25 μL, of complete growth media and incubated at 37° C., 5% CO2 for 20-24 hours. Prior to the assay, test compounds were diluted in the 384 well plates in assay buffer and allowed to equilibrate for 30 minutes. Growth media was removed from cell plates by inversion on blotting paper, and 25 μL of test compounds in assay buffer was added to cells. Cells were incubated for 45 minutes at room temperature. After 45 minutes, assay buffer was removed and 10 μL of lysis buffer was added. Plates were shaken for 20 minutes at 350 RPM at room temperature. After complete lysis, AlphaLisa reagents were added to the lysate, and fluourescence intensity was measured using a Perkin Elmer Envision plate reader. Intensities were used to generate a standard curve, and % activation was calculated. Curve fitting was performed using Prism v9 software, log(agonist) vs response-variable slope (four parameters), and EC50s were calculated from the curve fit.
The results presented in Table 20 have been generated with the in vitro assay described above for Examples 306-429. This assay may be used to test any of the compounds described herein to assess and characterize a compound's ability to act as an agonist of TREM2.
`Cc1cc([C@@H]2CN(c3nc(-c4cc(F)c(Cl)cc4F)c4nc(C)c(C)nc4n3)CCO2)ccn1` [Example 391, (2R)-4-[4-(4-chloro-2,5-difluoro-phenyl)-6,7-dimethyl-pteridin-2-yl]-2-(2-methyl-4-pyridyl)morpholine] was tested, and the EC50 was ≤ 50 nM.
In the case of `Cc1nc2cc([C@H]3CCO[C@@H](c4cnn(C5CC5)c4)C3)nc(C34CC(C(F)(F)F)(C3)C4)c2nc1C` (mixture of isomers) [Example 392, 2,3-dimethyl-7-[2-(1-cyclopropylpyrazol-4-yl)tetrahydropyran-4-yl]-5-[3-(trifluoromethyl)-1-bicyclo[1.1.1]pentanyl]pyrido[3,4-b]pyrazine], the EC50 is reported as ≤ 50 nM.
For `Cc1cnc2c(-c3ccc(F)cc3F)nc(N3CCOC(c4cnn(C5CC5)c4)C3)cc2n1` (stereo not shown) [Example 341, 2-(1-cyclopropyl-1H-pyrazol-4-yl)-4-(5-(2,4-difluorophenyl)-2-methylpyrido[3,4-b]pyrazin-7-yl)morpholine], the EC50 was ≤ 50 nM.
With `COc1cc(C2CN(c3nc(-c4ccc(C(F)(F)F)nc4)c4nc(C)c(C)nc4n3)CCO2)ccn1` (stereo not shown) [Example 322, 4-(6,7-dimethyl-4-(6-(trifluoromethyl)pyridin-3-yl)pteridin-2-yl)-2-(2-methoxypyridin-4-yl)morpholine] the EC50 was ≤ 50 nM.
In the case of `Cc1cnc2c(C34CC(C)(C3)C4)nc([C@H]3C[C@@H](C)O[C@@H](c4cnn(C5CC5)c4)C3)cc2n1` [Example 421, 7-((2R,4S,6R)-2-(1-cyclopropyl-1H-pyrazol-4-yl)-6-methyltetrahydro-2H-pyran-4-yl)-2-methyl-5-(3-methylbicyclo[1.1.1]pentan-1-yl)pyrido[3,4-b]pyrazine], the EC50 is reported as 500 to 3000 nM.
For `Cc1cc([C@H]2C[C@@H](c3nc(-c4ccc(Cl)cc4F)c4ccc(C)nc4n3)CCO2)ccn1` (racemic) [Example 325, 4-(4-chloro-2-fluorophenyl)-7-methyl-2-(2-(2-methylpyridin-4-yl)tetrahydro-2H-pyran-4-yl)pyrido[2,3-d]pyrimidine], the EC50 was ≤ 50 nM.
In the case of `Cc1cnc2c(C34CC(C(F)(F)F)(C3)C4)nc(N3CCO[C@H](c4cnn(C5CC5)c4)C3)nc2n1` [Example 359, (R)-2-(1-cyclopropyl-1H-pyrazol-4-yl)-4-(7-methyl-4-(3-(trifluoromethyl)bicyclo[1.1.1]pentan-1-yl)pteridin-2-yl)morpholine], the EC50 is reported as ≤ 50 nM.
For `Cc1nc2cc(N3C[C@H](C)O[C@@H](c4cnn(C5CC5)c4)C3)nc(-c3ccc(F)cc3F)c2nc1C` (racemic) [Example 357, 2-(1-cyclopropyl-1H-pyrazol-4-yl)-4-(5-(2,4-difluorophenyl)-2,3-dimethylpyrido[3,4-b]pyrazin-7-yl)-6-methylmorpholine], the EC50 was ≤ 50 nM.
For `Cc1nc2nc(N3C[C@@H](c4cnn(C5CC5)c4)O[C@@H](C)C3)nc(-c3ccc(F)cc3F)c2nc1C` [Example 426, (2R,6S)-2-(1-cyclopropyl-1H-pyrazol-4-yl)-4-(4-(2,4-difluorophenyl)-6,7-dimethylpteridin-2-yl)-6-methylmorpholine], the EC50 was ≤ 50 nM.
`Cc1nc2nc(N3C[C@H](C)O[C@@H](c4cnn(C5CC5)c4)C3)nc(-c3ccc(Cl)cc3F)c2nc1C` (racemic) [Example 372, 4-(4-(4-chloro-2-fluorophenyl)-6,7-dimethylpteridin-2-yl)-2-(1-cyclopropyl-1H-pyrazol-4-yl)-6-methylmorpholine] was tested, and the EC50 was ≤ 50 nM.
`Cc1cnc2c(-c3ccc(Cl)cc3F)nc(N3C[C@@H](C)O[C@@H](c4cnn(C5CC5)c4)C3)cc2n1` (racemic) [Example 368, 4-(5-(4-chloro-2-fluorophenyl)-2-methylpyrido[3,4-b]pyrazin-7-yl)-2-(1-cyclopropyl-1H-pyrazol-4-yl)-6-methylmorpholine] was tested, and the EC50 was 50 to 500 nM.
With `Cc1cnc2c(-c3ccc(F)cc3F)nc([C@H]3CCO[C@H](c4cnn(C5CC5)c4)C3)nc2n1` [Example 339, 2-((2S,4S)-2-(1-cyclopropyl-1H-pyrazol-4-yl)tetrahydro-2H-pyran-4-yl)-4-(2,4-difluorophenyl)-7-methylpteridine] the EC50 was 50 to 500 nM.
In the case of `Cc1nc2nc(N3CCOC(c4cnn(C5CC5)c4)C3)nc(-c3ccc(Cl)cc3F)c2nc1C` (stereo not shown) [Example 381, 4-[4-(4-chloro-2-fluoro-phenyl)-6,7-dimethyl-pteridin-2-yl]-2-(1-cyclopropylpyrazol-4-yl)morpholine], the EC50 is reported as ≤ 50 nM.
Compound `Cc1cc([C@@H]2C[C@H](c3cc4nc(C)c(C)nc4c(-c4ccc(F)cc4F)n3)CCO2)ccn1` [Example 316, 5-(2,4-difluorophenyl)-2,3-dimethyl-7-[(2S,4R)-2-(2-methyl-4-pyridyl)tetrahydropyran-4-yl]pyrido[3,4-b]pyrazine] has an EC50 of 50 to 500 nM.
For `Cc1nc2cc(N3CCO[C@H](c4cnn(C5CC5)c4)C3)nc(-c3ccc(C(F)(F)F)nc3)c2nc1C` [Example 385, (2R)-2-(1-cyclopropylpyrazol-4-yl)-4-[2,3-dimethyl-5-[6-(trifluoromethyl)-3-pyridyl]pyrido[3,4-b]pyrazin-7-yl]morpholine], the EC50 was 50 to 500 nM.
Work on `Cc1nc2cc(N3CC(C)OC(c4cnn(C5CC5)c4)C3)nc(-c3ccc(Cl)cc3F)c2nc1C` (stereo not shown) [Example 367, 4-(5-(4-chloro-2-fluorophenyl)-2,3-dimethylpyrido[3,4-b]pyrazin-7-yl)-2-(1-cyclopropyl-1H-pyrazol-4-yl)-6-methylmorpholine] yielded an EC50 of 50 to 500 nM.
With `Cc1nc2cc(N3CCO[C@@H](c4cnn(C5CC5)c4)C3)nc(-c3ccc(Cl)cc3F)c2nc1C` [Example 382, (2S)-4-[5-(4-chloro-2-fluoro-phenyl)-2,3-dimethyl-pyrido[3,4-b]pyrazin-7-yl]-2-(1-cyclopropylpyrazol-4-yl)morpholine] the EC50 was ≤ 50 nM.
With `Cc1nc2nc(N3C[C@@H](C)O[C@@H](c4cnn(C5CC5)c4)C3)nc(-c3ccc(F)cc3F)c2nc1C` [Example 427, (2S,6R)-2-(1-cyclopropyl-1H-pyrazol-4-yl)-4-(4-(2,4-difluorophenyl)-6,7-dimethylpteridin-2-yl)-6-methylmorpholine] the EC50 was ≤ 50 nM.
With `Cc1cnc2c(-c3ccc(F)cc3F)nc([C@H]3C[C@@H](C)O[C@@H](c4cnn(C5CC5)c4)C3)nc2n1` [Example 415, 2-((2R,4S,6R)-2-(1-cyclopropyl-1H-pyrazol-4-yl)-6-methyltetrahydro-2H-pyran-4-yl)-4-(2,4-difluorophenyl)-7-methylpteridine] the EC50 was 50 to 500 nM.
In the case of `Cc1cc([C@H]2C[C@@H](c3cc4nc(C)cnc4c(-c4ccc(C(F)(F)F)nc4)n3)CCO2)ccn1` (racemic) [Example 308, 2-methyl-7-(2-(2-methylpyridin-4-yl)tetrahydro-2H-pyran-4-yl)-5-(6-(trifluoromethyl)pyridin-3-yl)pyrido[3,4-b]pyrazine], the EC50 is reported as 50 to 500 nM.
For `Cc1ccc2c(-c3ccc(Cl)cc3F)nc([C@H]3C[C@@H](C)O[C@@H](c4cnn(C5CC5)c4)C3)nc2n1` [Example 414, 4-(4-chloro-2-fluorophenyl)-2-((2R,4S,6R)-2-(1-cyclopropyl-1H-pyrazol-4-yl)-6-methyltetrahydro-2H-pyran-4-yl)-7-methylpyrido[2,3-d]pyrimidine], the EC50 was ≤ 50 nM.
With `Cc1cc(C2CC(c3cc4nc(C)c(C)nc4c([C@]45C[C@](C(F)(F)F)(C4)C5)n3)CCO2)ccn1` (mixture of isomers) [Example 319, 2,3-dimethyl-7-(2-(2-methylpyridin-4-yl)tetrahydro-2H-pyran-4-yl)-5-(3-(trifluoromethyl)bicyclo[1.1.1]pentan-1-yl)pyrido[3,4-b]pyrazine] the EC50 was ≤ 50 nM.
